This passage reports melting point results from patent publication US20070105840A1, “Pyrrolo-dihydroisoquinoline derivatives as pde10 inhibitors” (Altana Pharma AG, priority 2003, published 2007).

The melting point is the temperature of the solid-liquid transition.

`CCOC(=O)c1c(-c2cc(C)c(O)c(C)c2)c(C)n2c1-c1cc(OC)c(OC)cc1CC2C` (racemic) [Example 5, (5RS)-(4-Hydroxy-3,5-dimethyl-phenyl)-8,9-dimethoxy-3,5-dimethyl-5,6-dihydro-pyrrolo[2,1-a]isoquinoline-1-carboxylic acid ethyl ester] came in with a melting point of 158 to 161 °C.

As to `CCOC(=O)c1c(-c2cc(C)c(O)c(C)c2)c(C)n2c1-c1cc(OC)c(OC)cc1CC2CC` (racemic) [Example 6, (5RS)-5-Ethyl-2-(4-hydroxy-3,5-dimethyl-phenyl)-8,9-dimethoxy-3-methyl-5,6-dihydro-pyrrolo[2,1-a]isoquinoline-1-carboxylic acid ethyl ester], the melting point is 164 to 166 °C. The molecule `CCOC(=O)c1c(-c2cc(C)c(O)c(C)c2)c(CC)n2c1-c1cc(OC)c(OC)cc1CC2C` (racemic) [Example 9, (5RS)-3-Ethyl-2-(4-hydroxy-3,5-dimethyl-phenyl)-8,9-dimethoxy-5-methyl-5,6-dihydro-pyrrolo[2,1-a]isoquinoline-1-carboxylic acid ethyl ester] gave a melting point of 188 to 190 °C.

`CCOC(=O)c1c(-c2cc(OC)c(OC)c(OC)c2)c(C)n2c1-c1cc(OC)c(OC)cc1CC2C` (racemic) [Example 10, (5RS)-8,9-Dimethoxy-3,5-dimethyl-2-(3,4,5-trimethoxy-phenyl)-5,6-dihydro-pyrrolo[2,1-a]isoquinoline-1-carboxylic acid ethyl ester] registered a melting point of 116 to 118 °C.

For `CCOC(=O)c1c(-c2cccc3ccccc23)c(C)n2c1-c1cc(OC)c(OC)cc1CC2C` (racemic) [Example 11, (5RS)-8,9-Dimethoxy-3,5-dimethyl-2-naphthalen-1-yl-5,6-dihydro-pyrrolo[2,1-a]isoquinoline-1-carboxylic acid ethyl ester], the melting point amounted to 184 °C. `CCOC(=O)c1c(-c2cccc3ccccc23)c(CCC(=O)OC)n2c1-c1cc(OC)c(OC)cc1CC2C` (racemic) [Example 20, (5RS)-8,9-Dimethoxy-3-(2-methoxycarbonyl-ethyl)-5-methyl-2-naphthalen-1-yl-5,6-dihydro-pyrrolo[2,1-a]isoquinoline-1-carboxylic acid ethyl ester] came in with a melting point of 56 to 59 °C.

On to `CCOC(=O)c1c(-c2cc(C)c(O)c(C)c2)c(C)n2c1-c1cc(OC)c(OC)cc1C1CCCCC12` (stereo not drawn) [Example 8, (4aRS,8aRS)-cis-2-(4-hydroxy-3,5-dimethyl-phenyl)-10,11-dimethoxy-3-methyl-4a,5,6,7,8,8a-hexahydro-pyrrolo[2,1-f]phenanthridine-1-carboxylic acid ethyl ester], for which the melting point is 186 to 192 °C. The molecule `CCOC(=O)c1c(-c2cccc3ccccc23)c(C)n2c1-c1cc(OC)c(OC)cc1C1CCCCC12` (stereo not drawn) [Example 12, (4aRS,8aRS)-cis-10,11-Dimethoxy-3-methyl-2-naphthalen-1-yl-4a,5,6,7,8,8a-hexahydro-pyrrolo[2,1-f]phenanthridine-1-carboxylic acid ethyl ester] registered a melting point of 189 to 191 °C.

Take `CCOC(=O)c1c(-c2ccnc3ccccc23)c(C)n2c1-c1cc(OC)c(OC)cc1C1CCCCC12` (stereo not drawn) [Example 13, (4aRS,8aRS)-cis-10,11-Dimethoxy-3-methyl-2-quinolin-4-yl-4a,5,6,7,8,8a-hexahydro-pyrrolo[2,1-f]phenanthridine-1-carboxylic acid ethyl ester]: the melting point lay within 153 to 157 °C. `CCOC(=O)c1c(-c2cc(C)c(O)c(C)c2)c(C)n2c1-c1cc(OC)c(OC)c(OC)c1CC2C` (stereo not drawn) [Example 18, (5RS)-2-(4-Hydroxy-3,5-dimethyl-phenyl)-7,8,9-bimethoxy-3,5-dimethyl-5,6-dihydro-pyrrolo[2,1-a]isoquinoline-1-carboxylic acid ethyl ester] displayed a melting point of 144 °C. `COc1cc2c(cc1OC)-c1c(C#N)c(-c3cccc4ccccc34)c(C)n1CC2` [Example 22, 8,9-Dimethoxy-3-methyl-2-naphthalen-1-yl-5,6-dihydro-pyrrolo[2,1-a]isoquinoline-1-carbonitrile]: the melting point is 226 to 229 °C.
